The source of these data is patent US20260176258A1, “A THIOETHER COMPOUND HAVING SOFT DRUG PROPERTIES, A PHARMACEUTICAL COMPOSITION AND USE THEREOF” (Prime Gene Therapeutics Co., Ltd., priority 2022, published 2026).

Molecules are shown by their SMILES.

The inhibition is the drop in the measured response relative to a control, in per cent.

Data set [1] is described as follows: Liver microsome metabolism stability test, human. The conditions noted are these: human liver microsomes 0.5 mg/mL, 1 μM compound, 37° C. The data set is classed as in vitro ADME. The method, then:
(§1) Two separate experiments were conducted. a) NADPH: 10 μL of 20 mg/mL liver microsomes and 40 μL of 10 mM NADPH were added to a culture medium. The final concentrations of microsomes and NADPH were 0.5 mg/mL and 1 mM, respectively. b) NADPH free: 10 μL of 20 mg/mL liver microsomes and 40 μL of ultrapure H2O were added to a culture medium. The final concentration of microsomes was 0.5 mg/mL.
(§2) At the beginning of the reaction, 4 μL of 100 μM test compound solution or a control compound solution with a final concentration of 1 μM were added, and proceed at 37° C.
(§3) 50 μL aliquots were taken from the reaction solution at 0, 7, 15, 30, and 60 minutes. The reaction was stopped by adding 4 volumes of cold acetonitrile and IS (100 nM alprazolam, 200 nM labetalol, 200 nM caffeine, and 2 μM ketoprofen). The samples were centrifuged at 3220 grams for 40 minutes. 100 μL supernatant divided equally was mixed with 100 μL of ultrapure H2O, and use for LC-MS/MS analysis.
Background: Liver microsomes are a subcellular fraction often used to study metabolism.

Data set [2] in a line: Liver microsome metabolism stability test, rat. The data set is classed as in vitro ADME. The conditions noted are these: rat liver microsomes 0.5 mg/mL, 1 μM compound, 37° C. As for the experimental part:
as §1, §2, §3

A further data set has as its target T1, hTRPV3 (Homo sapiens, UniProt Q8NET8).
T1 construct: expressed in transfected cells; host or cells: HEK-293
T1 sequence (Q8NET8 1-790): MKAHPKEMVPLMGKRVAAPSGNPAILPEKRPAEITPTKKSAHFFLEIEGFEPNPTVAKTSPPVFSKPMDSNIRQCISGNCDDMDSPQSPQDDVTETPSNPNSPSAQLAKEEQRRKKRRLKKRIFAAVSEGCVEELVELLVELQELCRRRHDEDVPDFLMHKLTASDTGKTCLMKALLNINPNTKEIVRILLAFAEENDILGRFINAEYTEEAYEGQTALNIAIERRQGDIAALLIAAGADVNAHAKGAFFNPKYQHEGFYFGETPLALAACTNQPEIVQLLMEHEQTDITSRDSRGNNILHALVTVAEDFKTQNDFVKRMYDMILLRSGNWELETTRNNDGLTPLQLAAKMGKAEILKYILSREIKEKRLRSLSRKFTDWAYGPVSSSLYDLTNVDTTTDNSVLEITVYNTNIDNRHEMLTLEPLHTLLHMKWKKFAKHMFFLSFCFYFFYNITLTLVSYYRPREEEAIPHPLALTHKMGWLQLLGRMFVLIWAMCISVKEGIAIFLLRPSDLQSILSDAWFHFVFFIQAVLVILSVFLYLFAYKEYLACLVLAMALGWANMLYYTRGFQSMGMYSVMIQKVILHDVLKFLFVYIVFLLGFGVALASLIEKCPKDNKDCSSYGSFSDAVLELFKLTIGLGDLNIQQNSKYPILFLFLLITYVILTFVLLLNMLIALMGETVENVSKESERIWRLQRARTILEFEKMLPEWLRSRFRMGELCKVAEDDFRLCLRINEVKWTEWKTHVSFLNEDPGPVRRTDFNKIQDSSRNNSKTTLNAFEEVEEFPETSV
Briefly: Whole cell patch clamp of TRPV3 current in HEK-293 cells instantaneously expressing TRPV3. The data set is classed as cell-based. The conditions noted are these: for inhibition at 0.3 µM: HEK293, single concentration 0.3 μM, patch clamp, read-out: Inhibition rate on hTRPV3. The method, then:
In this study, HEK-293 cells instantaneously expressing TRPV3 were used for experimental detection.
The operation steps are as follows:
The cells were cultured in DMEM medium containing 10% fetal bovine serum at a temperature of 37° C. and a carbon dioxide concentration of 5%.
Day 1: Cells were inoculated into a 6-well plate with 5×10^5 cells per well.
Day 2: Transfection was performed using Lipofectamine 3000 transfection reagent, with a plasmid to transfection reagent ratio of 1 μg: 2 μL. The total amount of plasmid used per well was 3 μg. Specifically, two sterile centrifuge tubes were taken and 100 μL Opti-MEM was added to each tube. 6 μL Lipofectamine 3000 was added to one tube and mixed well; and 3 μg plasmid was added to another tube and mixed well, and then 6 μL P3000 was added and mixed well; after that, the diluted plasmid DNA was addeds to diluted Lipofectamine 3000 and incubated at room temperature for 10-15 min. DNA liposome complex was dropped into the cells, shaked gently and mixed well, and then cultured in an incubator. The liquid was changed after 4 to 6 h.
Day 3: The cells were digested and seeded into 24 well plates with pre-placed cover slides, with 8×10^3 cells per well.
Day 4: Patch clamp testing was performed.
The voltage stimulation protocol for recording TRPV3 current using whole cell patch clamp is as follows: after forming a whole cell seal, a cell membrane voltage clamp was set at −80 mV. Firstly, a membrane potential was recorded at 0 mV, and then a voltage was command to start from −100 mV, to depolarize in the form of Ramp to 100 mV within 100 ms, and finally restore to 0 mV. Data collection was repeated every 5 seconds to observe the inhibitory effect of pharmaceutical on peak current. Experimental data was collected by EPC 10 amplifier (HEKA) and stored in PatchMaster (HEKA) software.
A microelectrode puller was used to pull the capillary glass tube into a recording electrode. The electrode filled with intracellular fluid was inserted into a microelectrode holder, and a microelectrode manipulator was operated under an inverted microscope to immerse the electrode in extracellular fluid and an electrode resistance (Rpip) was recorded. The electrode was brought into contact with the cell surface and a negative pressure suction was applied to form a high resistance seal (GΩ). At this point, a fast capacitance compensation was performed, and negative pressure was continued to apply in order to break the cell membrane, so that a whole cell recording mode was formed. Then, a slow capacitance compensation was performed and experimental parameters such as film capacitance (Cm) and series resistance (Rs) were recorded. No leakage compensation was provided.
When the TRPV3 current recorded by the whole cell had stabilized, administration was started. Each pharmaceutical concentration acted for 5 minutes (or until the current stabilized) before detecting the next concentration. A plurality of concentrations was tested for each test compound. A cover glass covered with cells was placed in a recording bath under an inverted microscope. A blank control extracellular solution and a working fluid for the compound to be tested sequentially flowed through the recording bath from low concentration to high concentration using gravity perfusion to act on the cells. Liquid exchange was performed using a peristaltic pump during recording. The current detected by each cell in the extracellular fluid without the compound served as its own control group. Each concentration was independently tested twice using at least two cells. All electrophysiological tests were conducted at room temperature.
In general terms: In patch-clamp work, channel activity is measured electrically.

For a further data set, the target named is hTRPV4 (Homo sapiens, UniProt Q9HBA0). In words: Patch clamp method, hTRPV4. It is filed as cell-based.
In another data set the target is hTRPA1 (Homo sapiens, UniProt O75762). In words: Patch clamp method, hTRPA1. It is filed as cell-based.
The next data set deals with hTRPV1 (Homo sapiens, UniProt Q8NER1). Briefly: Patch clamp method, hTRPV1. The data set is classed as cell-based.
Chain of hTRPV1 (Q8NER1 whole entry): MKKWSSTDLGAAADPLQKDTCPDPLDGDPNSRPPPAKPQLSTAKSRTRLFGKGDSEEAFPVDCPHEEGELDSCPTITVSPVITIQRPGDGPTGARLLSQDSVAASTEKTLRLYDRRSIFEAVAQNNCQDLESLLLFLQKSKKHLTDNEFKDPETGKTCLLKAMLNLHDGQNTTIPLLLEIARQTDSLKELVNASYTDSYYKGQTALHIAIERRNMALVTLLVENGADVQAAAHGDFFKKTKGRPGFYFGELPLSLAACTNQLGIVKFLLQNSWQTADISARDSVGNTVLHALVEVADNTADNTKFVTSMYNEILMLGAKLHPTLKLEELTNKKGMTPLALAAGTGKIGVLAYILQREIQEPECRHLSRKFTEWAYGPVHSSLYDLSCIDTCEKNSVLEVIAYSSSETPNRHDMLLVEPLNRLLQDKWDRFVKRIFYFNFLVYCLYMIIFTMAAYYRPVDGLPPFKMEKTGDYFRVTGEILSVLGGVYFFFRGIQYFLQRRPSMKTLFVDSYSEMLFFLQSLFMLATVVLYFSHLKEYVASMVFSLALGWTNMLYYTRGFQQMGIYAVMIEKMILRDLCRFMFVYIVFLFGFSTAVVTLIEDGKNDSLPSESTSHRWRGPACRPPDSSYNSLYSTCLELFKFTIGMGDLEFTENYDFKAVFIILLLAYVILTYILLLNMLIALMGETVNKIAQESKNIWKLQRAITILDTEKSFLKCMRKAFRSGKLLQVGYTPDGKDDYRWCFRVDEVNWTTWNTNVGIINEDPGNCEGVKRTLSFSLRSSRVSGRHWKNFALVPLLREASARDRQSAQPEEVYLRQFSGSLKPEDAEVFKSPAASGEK

Chain of hTRPV4 (Q9HBA0 whole entry): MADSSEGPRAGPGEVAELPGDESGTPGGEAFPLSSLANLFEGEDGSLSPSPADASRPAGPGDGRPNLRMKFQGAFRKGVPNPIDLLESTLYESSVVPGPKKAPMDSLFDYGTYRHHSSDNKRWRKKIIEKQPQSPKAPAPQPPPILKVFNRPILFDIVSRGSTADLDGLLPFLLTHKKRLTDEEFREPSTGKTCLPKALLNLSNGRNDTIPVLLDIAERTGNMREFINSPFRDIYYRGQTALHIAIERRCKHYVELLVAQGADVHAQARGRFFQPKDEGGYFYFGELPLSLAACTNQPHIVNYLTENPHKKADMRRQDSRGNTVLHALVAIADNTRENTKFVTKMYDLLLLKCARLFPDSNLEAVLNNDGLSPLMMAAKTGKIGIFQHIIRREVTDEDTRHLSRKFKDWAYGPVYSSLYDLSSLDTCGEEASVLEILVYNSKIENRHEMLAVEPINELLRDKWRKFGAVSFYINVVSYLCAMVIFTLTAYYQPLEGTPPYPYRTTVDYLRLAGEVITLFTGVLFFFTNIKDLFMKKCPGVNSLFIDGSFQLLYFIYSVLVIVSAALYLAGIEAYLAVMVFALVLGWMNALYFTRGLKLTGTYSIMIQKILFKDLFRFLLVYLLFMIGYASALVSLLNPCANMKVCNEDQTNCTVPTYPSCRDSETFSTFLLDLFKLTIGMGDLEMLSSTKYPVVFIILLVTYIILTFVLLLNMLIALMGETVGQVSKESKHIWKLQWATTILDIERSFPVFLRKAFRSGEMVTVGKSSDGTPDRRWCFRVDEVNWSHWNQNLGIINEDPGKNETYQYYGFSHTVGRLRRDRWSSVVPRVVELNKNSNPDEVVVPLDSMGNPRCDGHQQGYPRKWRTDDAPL
Chain of hTRPA1 (O75762 whole entry): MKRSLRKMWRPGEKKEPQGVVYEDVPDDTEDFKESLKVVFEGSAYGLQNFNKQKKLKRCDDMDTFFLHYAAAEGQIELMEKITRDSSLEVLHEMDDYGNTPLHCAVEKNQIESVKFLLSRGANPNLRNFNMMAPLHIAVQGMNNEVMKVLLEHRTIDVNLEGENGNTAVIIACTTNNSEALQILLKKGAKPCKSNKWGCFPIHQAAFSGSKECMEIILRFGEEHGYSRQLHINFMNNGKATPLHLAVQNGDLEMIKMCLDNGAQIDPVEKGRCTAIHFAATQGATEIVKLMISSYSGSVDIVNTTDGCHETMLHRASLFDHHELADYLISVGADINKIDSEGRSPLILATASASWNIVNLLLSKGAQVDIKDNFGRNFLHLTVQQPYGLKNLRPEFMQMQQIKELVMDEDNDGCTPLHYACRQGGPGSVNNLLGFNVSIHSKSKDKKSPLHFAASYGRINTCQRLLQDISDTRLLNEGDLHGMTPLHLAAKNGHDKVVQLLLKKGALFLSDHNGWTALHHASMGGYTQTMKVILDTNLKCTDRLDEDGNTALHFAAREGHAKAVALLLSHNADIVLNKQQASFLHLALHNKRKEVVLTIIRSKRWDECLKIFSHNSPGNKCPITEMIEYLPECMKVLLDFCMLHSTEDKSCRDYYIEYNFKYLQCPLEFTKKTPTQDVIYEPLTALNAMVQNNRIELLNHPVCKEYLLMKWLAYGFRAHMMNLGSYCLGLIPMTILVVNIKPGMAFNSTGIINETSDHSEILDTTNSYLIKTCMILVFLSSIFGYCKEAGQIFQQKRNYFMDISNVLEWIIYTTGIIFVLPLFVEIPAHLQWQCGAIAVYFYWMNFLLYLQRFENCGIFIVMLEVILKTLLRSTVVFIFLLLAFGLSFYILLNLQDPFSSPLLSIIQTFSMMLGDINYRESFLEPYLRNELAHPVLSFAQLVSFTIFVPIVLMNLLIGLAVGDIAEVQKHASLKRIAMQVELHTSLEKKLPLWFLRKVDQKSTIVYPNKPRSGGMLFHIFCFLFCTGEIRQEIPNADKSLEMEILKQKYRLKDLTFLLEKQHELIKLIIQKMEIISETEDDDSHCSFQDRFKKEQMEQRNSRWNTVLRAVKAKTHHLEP

Turning to `CC(C)c1ccccc1-c1ccc(N2CC[C@H](Sc3ccc(Cl)cn3)C2)c(CO)c1` [Example 1, ((S)-(4-(3-(5-chloropyridin-2-yl)thio)pyrrolidin-1-yl)-2′-isopropyl-[1,1′-biphenyl]-3-yl) methanol], the “in vitro Clint” value is given as 135.00 microliters/minute/milligrams in data set [1] and 112.14 microliters/minute/milligrams in data set [2]. Further, the half-life at 1 μM in data set [1] (read-out: in vitro T1/2) was determined as 10.3 min; in data set [2] (read-out: in vitro T1/2), 12.4 min. In addition, the inhibition at 0.3 µM on hTRPV3 amounted to 71.6%.

For `CC(C)c1ccccc1-c1ccc(N2CC[C@H](S(=O)(=O)c3ccc(Cl)cn3)C2)c(CO)c1` [Example 2, ((S)-(4-(3-(5-chloropyridin-2-yl)sulfonyl)pyrrolidin-1-yl)-2′-isopropyl-[1,1′-biphenyl]-3-yl) methanol], the inhibition at 0.3 µM at hTRPV3 is 18.6%.

As for `CC(C)c1ccccc1-c1ccc(N2CC[C@H]([S+]([O-])c3ccc(Cl)cn3)C2)c(CO)c1` (stereo partly shown) [Example 3], at hTRPV3, the inhibition at 0.3 µM is 9.96%.

As for `OCc1cc(-c2ccccc2C2CC2)ccc1N1CC[C@H](Sc2ccc(Cl)cn2)C1` [Example 4, ((S)-(4-(3-(5-chloropyridin-2-yl)thio)pyrrolidin-1-yl)-2′-cyclopropyl-[1,1′-biphenyl]-3-yl) methanol], the inhibition at 0.3 µM at hTRPV4 (0.3 μM, patch clamp method, read-out: Inhibition rate (%) on hTRPV4) was found to be 36.2%; on hTRPA1 (0.3 μM, patch clamp method, read-out: Inhibition rate (%) on hTRPA1), 2.44%; at hTRPV3 it was 72.8%; on hTRPV1 (0.3 μM, patch clamp method, read-out: Inhibition rate (%) on hTRPV1), 0.48%. In addition, the “Selectivity ratio (hTRPV4)” value at hTRPV4 (ratio of inhibition rate on TRPV3 to inhibition rate on hTRPV4, 0.3 μM) worked out at 2x. Besides, at hTRPA1 (ratio of inhibition rate on TRPV3 to inhibition rate on hTRPA1, 0.3 μM), the “Selectivity ratio (hTRPA1)” value stood at 30x. The “Selectivity ratio (hTRPV3)” value at hTRPV3 (ratio of inhibition rate on TRPV3 to inhibition rate on this channel, 0.3 μM) came out at 1x. For the same molecule, on hTRPV1 (ratio of inhibition rate on TRPV3 to inhibition rate on hTRPV1, 0.3 μM), the “Selectivity ratio (hTRPV1)” value amounted to 152x.

As to `O=S(=O)(c1ccc(Cl)cn1)[C@H]1CCN(c2ccc(-c3ccccc3C3CC3)cc2CO)C1` [Example 5, (S)-(4-(3-((5-chloropyridin-2-yl)sulfonyl)pyrrolidin-1-yl)-2′-cyclopropyl-[1,1′-biphenyl]-3-yl) methanol], on hTRPV3, the inhibition at 0.3 µM amounted to 23.1%.

Regarding `[O-][S+](c1ccc(Cl)cn1)[C@H]1CCN(c2ccc(-c3ccccc3C3CC3)cc2CO)C1` (stereo partly shown) [Example 6], the inhibition at 0.3 µM at hTRPV3 was determined as 4.73%.

`CC(C)c1ccccc1-c1ccc(N2CC[C@H](Sc3ccc(C(F)(F)F)cn3)C2)c(CO)c1` [Example 7, ((S)-(2′-isopropyl-4-(3-(5-(trifluoromethyl)pyridin-2-yl)thio)pyrrolidin-1-yl)-[1,1′-biphenyl]-3-yl) methanol]: the inhibition at 0.3 µM at hTRPV3 came out at 38%.

As to `OCc1cc(-c2ccccc2C2CC2)ccc1N1CC[C@H](Sc2ccc(F)cn2)C1` [Example 10, ((S)-(4-(3-(5-fluoropyridin-2-yl)thio)pyrrolidin-1-yl)-2′-cyclopropyl-[1,1′-biphenyl]-3-yl) methanol], the inhibition at 0.3 µM on hTRPV3 came to 97.8%.
